Five compounds from PMC11079024, “Identification of a family of species-selective complex I inhibitors as potential anthelmintics” (Nature Communications, 2024) can be followed below.

Like-named read-outs stand apart in the source and are kept apart here. Where only a bound is given, the exact number is not on record here.

The test system of series [1] is ben-1 mutant (ECA882) C. elegans. Kind of series: microbe, parasite or virus in culture. The settings on record: for C. elegans L1 relative development & viability: ECA882 deletion (ben-1). How it is done: Liquid development and viability assays were adapted from a previously established chemical screening protocol (Burns et al.)[24]. In brief, a saturated culture of E. coli HB101 was concentrated 2-fold in liquid NGM and 40 μL of this suspension was distributed to each well of a 96-well flat-bottom culture plate. 0.5 μL chemical solution (or DMSO alone) was added to each well (1% DMSO v/v) using either a multi-channel pipette or a pinning tool (V&P Scientific). L1 worms synchronized from an embryo preparation performed the day prior were diluted to a concentration of ~2 worms/μL in M9 buffer; 10 μL worm suspension was then added to each well. Culture plates were sealed with parafilm and placed in a plastic container lined with wet paper towels to prevent evaporation. Containers were then incubated for 6 days at 20 °C with shaking at 165 rpm. Following incubation, 300 μL M9 was added to each well to decrease the turbidity of the HB101-NGM suspension. Single images of each microplate well were then taken on a Nikon Ti Eclipse inverted microscope (Nikon NIS Elements AR). Images were processed using Python scripts to isolate worm-associated pixels from background. Scores of worm development and viability were determined as the sum of worm-associated pixels in each well. Development/viability scores for each well were divided by the development /viability scores for the corresponding DMSO controls, resulting in a relative viability value for each chemical. At least three biological replicates were performed for each dose-response experiment; relative viability values were averaged across replicates. […]
anthelmintics. a. Chemical structures of four commercial benzimidazole anthelmintics (e.g., albendazole, […]
Dose response of four commercial […]
elegans strains: N2, wild type; ECA882, deletion (ben-1); ECA917, F200Y (ben-1); ECA1075, F167Y (ben-1); ECA1080, E198A (ben-1); CB3474, G104D (ben-1). The colour-coded scale denotes the phenotypic outcome of drug treatment (e.g., motility or viability) relative to DMSO controls; white/pale- […]
death and arrested development. c. […]
benzimidazole anthelmintics (blue) were conducted in C. elegans development and viability assays for wild type (N2) and ben-1 mutant (ECA882) C. elegans (see Supplementary Date File 1).
All data used for generation of dose-response curves is the mean of at least three […]
Supplementary Figure 7 (continued). Davie et al.

Setting [2] is: Caenorhabditis elegans, read-out: C. elegans ben-1 LC50.
[3] abbreviates: Caenorhabditis elegans, read-out: C. elegans ben-1 log10 LC50 (converted).
Where [4] appears, read: 15.6 µM, score 0-1 relative to DMSO, values >1 set to 1.
The mark [5] stands for this setting: 31.3 µM, score 0-1 relative to DMSO, values >1 set to 1.
Setting [6] is: Caenorhabditis elegans, read-out: C. elegans (ben-1) Development & Viability Assay LC50.
[7] abbreviates: Caenorhabditis elegans, read-out: C. elegans ben-1(e1880) development/viability.

On to `O=C(NCCc1ccc(Cl)cc1)c1ccccc1C(F)(F)F` [Wact-11], for which the “C. elegans L1 relative motility, 3-hour post 200 µM KCN dilution” value (“C. elegans L1 relative motility” for short) is on record as 0.985 in the series on L1 wild-type C. elegans; 0.937 with L1 wild-type C. elegans (dose 0.1 µM, Mean of replicates); 0.997 in the series on L1 wild-type C. elegans (dose 0.2 µM, Mean of replicates); 0.959 in the series on L1 wild-type C. elegans (dose 0.4 µM, Mean of replicates); 0.815 with L1 wild-type C. elegans (dose 0.8 µM, Mean of replicates); 0.584 with L1 wild-type C. elegans (dose 3.1 µM, Mean of replicates). Further, the “C. elegans L1 relative motility” value was determined as 0.376 with L1 wild-type C. elegans (dose 6.3 µM, Mean of replicates); 0.173 with L1 wild-type C. elegans (dose 12.5 µM, Mean of replicates); 0.067 in the series with L1 wild-type C. elegans (dose 25 µM, Mean of replicates); 0.015 in the series with L1 wild-type C. elegans (dose 50 µM, Mean of replicates); 0.006 in the series on L1 wild-type C. elegans (dose 100 µM, Mean of replicates); 0.795 in the series with L1 wild-type C. elegans (dose […], Mean of replicates). The “KCN survival assay value relative to DMSO control” value with L1 wild-type C. elegans was 0.985; in the series with L1 wild-type C. elegans (15 hour drug + KCN treatment, dose 0.1 µM, Mean of replicates), 0.937; with L1 wild-type C. elegans (15 hour drug + KCN treatment, dose 0.2 µM, Mean of replicates), 0.997; in the series on L1 wild-type C. elegans (15 hour drug + KCN treatment, dose 0.4 µM, Mean of replicates), 0.959; with L1 wild-type C. elegans (15 hour drug + KCN treatment, dose 0.8 µM, Mean of replicates), 0.815; in the series with L1 wild-type C. elegans (15 hour drug + KCN treatment, dose 3.1 µM, Mean of replicates), 0.584. In addition, the “KCN survival assay value relative to DMSO control” value in the series with L1 wild-type C. elegans (15 hour drug + KCN treatment, dose 6.3 µM, Mean of replicates) was 0.376; in the series with L1 wild-type C. elegans (15 hour drug + KCN treatment, dose 12.5 µM, Mean of replicates) it was 0.173; with L1 wild-type C. elegans (15 hour drug + KCN treatment, dose 25 µM, Mean of replicates), 0.067; with L1 wild-type C. elegans (15 hour drug + KCN treatment, dose 50 µM, Mean of replicates) it was 0.015; in the series with L1 wild-type C. elegans (15 hour drug + KCN treatment, dose 100 µM, Mean of replicates), 0.006. Besides, the “relative motility, 20 min after KCN removal” value in the series with L1 wild-type C. elegans came out at 0.070. The “relative motility, 80 min after KCN removal” value in the series on L1 wild-type C. elegans worked out at 0.012. In addition, the “relative motility, 110 min after KCN removal” value in the series with L1 wild-type C. elegans is recorded as 0.018. The “relative motility, 160 min after KCN removal” value in the series with L1 wild-type C. elegans is listed as 0.009. Moreover, in the series with L1 wild-type C. elegans, the “relative motility, 180 min after KCN removal” value is reported as 0.000. The compound further registered a 50% lethal concentration (LC50) in the series with L1 wild-type C. elegans (caenorhabditis elegans) of 4.43 µM.

Regarding `COC(=O)Nc1nc2ccc(C(=O)c3ccccc3)cc2[nH]1` [mebendazole, reference compound], the LC50 in series [1] (setting [2]) and in series [1] (setting [3]) was above 250 µM each time. Also, the “C. elegans L1 relative development & viability” value in series [1] (1 µM, score 0-1 relative to DMSO, values >1 set to 1) stood at 1.000; in series [1] (2 µM, score 0-1 relative to DMSO, values >1 set to 1), 1.000; in series [1] (3.9 µM, score 0-1 relative to DMSO, values >1 set to 1) it was 1.000; in series [1] (setting [4]) it was 1.000; in series [1] (setting [5]) it was 1.000; in series [1] (62.5 µM, […]), 0.948. The “C. elegans L1 relative development & viability” value in series [1] (125 µM, […]) was determined as 0.701; in series [1] (250 µM, […]), 0.623.

For `CC(C)Cc1ccc(C(C)c2nc3ccccc3n2C)cc1` (stereo not shown) [NPD8790], in series [1] (setting [6]), the LC50 is above 1000 µM.

As for `CCCn1c(COc2ccc(C)cc2)nc2ccccc21` [Compound 6944471], the values for the LC50 in series [1] (setting [6]), in series [1] (setting [2]) and in series [1] (setting [3]) were above 1000 µM, above 500 µM and above 500 µM, respectively. In series [1] (setting [7]), the viability at 15.6 µM worked out at 98%. Moreover, the viability at 31.3 µM in series [1] (setting [7]) came out at 100%. The viability at 62.5 µM in series [1] (setting [7]) came to 100%. Also, the viability at 125 µM in series [1] (setting [7]) turned out to be 100%. Besides, the viability at 250 µM in series [1] (setting [7]) amounted to 100%. For the same compound, the viability at 500 µM in series [1] (setting [7]) amounted to 62.1%. The viability at 1000 µM in series [1] (setting [7]) was 100%. The “Screen "Hit"” value in the series with L1 wild-type C. elegans (50 μM, […], hit = relative motility below 0.25 3 hours after removal of KCN) was “Y (hits were identified as compounds that reduced relative motility below 0.25 (75% reduction))”. Besides, in the series on L1 wild-type C. elegans (50 μM, […], worm motility 3 hours after removal of KCN, relative to DMSO controls, single biological replicate), the “Relative Motility” value is reported as 0.170. The “C. elegans KCN Survival” value in the series on L1 wild-type C. elegans (Dose 0.2 µM, mean of at least three biological replicates) is listed as 0.888; in the series on L1 wild-type C. elegans (Dose 0.39 µM) it was 0.949; in the series with L1 wild-type C. elegans (Dose 1.56 µM), 1.451; in the series with L1 wild-type C. elegans (Dose 3.13 µM), 0.820; in the series on L1 wild-type C. elegans (Dose 6.25 µM) it was 0.671; in the series on L1 wild-type C. elegans (Dose 12.5 µM), 0.270. For the same compound, the “C. elegans KCN Survival” value in the series on L1 wild-type C. elegans (Dose 25 µM) was 0.341; in the series on L1 wild-type C. elegans (Dose 50 µM) it was 0.000; in the series with L1 wild-type C. elegans (Dose 100 µM) it was 0.000.

As to `c1ccc2[nH]c(-c3cscn3)nc2c1` [Thiabendazole], the LC50 in series [1] (setting [2]) and in series [1] (setting [3]) was 375 µM in each case. In addition, the “C. elegans L1 relative development & viability” value was found to be 0.926 in series [1] (1 µM, […]); 0.954 in series [1] (2 µM, […]); 0.969 in series [1] (3.9 µM, […]); 0.996 in series [1] (setting [4]); 1.000 in series [1] (setting [5]); 1.000 in series [1] (62.5 µM, score 0-1 relative to DMSO, values >1 set to 1). The “C. elegans L1 relative development & viability” value in series [1] (125 µM, score 0-1 relative to DMSO, values >1 set to 1) amounted to 1.000; in series [1] (250 µM, […]), 0.967; in series [1] (500 µM, […]) it was 0.155. Moreover, the “C. elegans L1 relative motility” value with L1 wild-type C. elegans ([…], score 0-1 relative to DMSO, values >1 set to 1) amounted to 1.000.

A word on the LC50: it is the concentration that kills 50% of the test population.
